Data as given in PMC3362575, “Synthesis and Biological Evaluation of Phenanthrenes as Cytotoxic Agents with Pharmacophore Modeling and ChemGPS-NP Prediction as Topo II Inhibitors” (PLoS ONE, 2012).
Converted amounts (≈) assume the structure as drawn. Read-outs that look alike come from different tables or passages of the source.

Experiments:
HepG2 = experiment: MTT cytotoxicity assay, HepG2; format: cell-based, human; conditions: Homo sapiens
Procedure: (§1) The cytotoxic assay of 11 naturally occurring and 19 synthesized phenanthrenes was carried out on a diverse set of human liver (HepG2 and Hep3B), oral (Ca9-22), lung (A549) and breast (MEA-MB-231 and MCF7) cancer cell lines, and a human fetal lung fibroblast (MRC-5) cell line (Tables 1 and 2).
(§2) Compounds were tested against human liver (HepG2 and Hep3B), oral (Ca9-22), lung (A549), breast (MEA-MB-231 and MCF7) cancer cell lines, and the human fetal lung fibroblast (MRC-5) cell line using an established colorimetric MTT assay protocol. The absorbance was measured at 550 nm using a microplate reader. The IC50 is the concentration of agent that reduced cell growth by 50% under the experimental conditions.

A549 = experiment: MTT cytotoxicity assay, A549; format: cell-based, human; conditions: Homo sapiens
Procedure: as §1, §2

MDA-MB-231 = experiment: MTT cytotoxicity assay, MDA-MB-231; format: cell-based, human; conditions: Homo sapiens
Procedure: as §1, §2

Hep3B = experiment: MTT cytotoxicity assay, Hep3B; format: cell-based, human; conditions: Homo sapiens, Hep3B
Procedure: as §1, §2

MCF-7 = experiment: MTT cytotoxicity assay, MCF-7; format: cell-based, human; conditions: Homo sapiens; for IC50: MTT; for MCF-7 activity class (from IC50): MCF7, Table S3, read-out: Scale Exptl. (MCF-7 activity class)
Procedure: as §1, §2
The pharmacophore modeling with Catalyst HypoGen was performed via Discovery Studio 2.1 (Accelrys, San Diego, CA, USA). Twenty-nine phenanthrene derivatives were collected from the natural plant, C. arisanensis, and from chemical synthesis (Figure 2). Cytotoxicity against MCF-7 cells was determined by the MTT assay and the concentration (µg/mL) of test compound which inhibited 50% of the cancer cells (IC50) was used in the generation of the pharmacophore model. An IC50 value of >20 µg/mL was defined as 20 µg/mL. All experimental IC50 values spanned about 2–3 orders of magnitude from 0.09 to 20 µg/mL. The 2D/3D structures of compounds were generated using ChemBioOffice 2008 (Cambridge Scientic Computing, Cambridge, Massachusetts, USA) and then optimized in a Dreiding force field. The conformational ensemble of each compound was generated using the best conformational analysis method based on a CHARMM force field with a 20 kcal/mol energy threshold above the global minimum. A maximum limit of 255 conformations was used to cover maximum conformational space. The best 3D arrangements of chemical functionalities should explain the activity variations among the 29 compounds. Thirty runs with different parameters were performed for the best pharmacophore hypothesis. Four chemical features, including hydrogen-bond acceptor (HBA), hydrogen-bond donor (HBD), hydrophobic (HYD), and aromatic ring (AR) features, were also tested during the building of pharmacophore hypotheses (Table S1; Text S1). The best hypotheses were selected via a correlation and a cost analysis in Catalyst HypoGen.

MRC-5 = experiment: MTT cytotoxicity assay, MRC-5 fetal lung fibroblast; format: cell-based, human; conditions: Homo sapiens, normal fetal lung fibroblast
Procedure: as §1, §2

human cancer cell lines = experiment: MTT cytotoxicity assay, ranges over the cancer cell line panel; format: cell-based; conditions: Homo sapiens
Procedure: as §1, §2

Ca9-22 = experiment: MTT cytotoxicity assay, Ca9-22; format: cell-based, human; conditions: Homo sapiens
Procedure: as §1, §2

[1] = HepG2, Table 2, synthesized phenanthrenes
[2] = A549, Table 2, synthesized phenanthrenes
[3] = MDA-MB-231, Table 2, synthesized phenanthrenes
[4] = Table 2, synthesized phenanthrenes
[5] = MCF7, Table 2, synthesized phenanthrenes
[6] = MRC5, Table 2, synthesized phenanthrenes
[7] = Ca9-22, Table 2, synthesized phenanthrenes
[8] = HepG2, Table 1, natural phenanthrenes
[9] = A549, Table 1, natural phenanthrenes
[10] = MDA-MB-231, Table 1, natural phenanthrenes
[11] = MCF7, Table 1, natural phenanthrenes
[12] = MRC5, Table 1, natural phenanthrenes
[13] = Ca9-22, Table 1, natural phenanthrenes

Compound | IC50 (HepG2; [1]) | IC50 (A549; [2]) | IC50 (MDA-MB-231; [3]) | IC50 (Hep3B; [4]) | IC50 (MCF-7; [5]) | MCF-7 activity class (from IC50) (MCF-7) | IC50 (MRC-5; [6]) | IC50 (human cancer cell lines; HepG2, range over five cancer cell lines, not including HepG2, read-out: IC50 against five cancer cell lines) | IC50 (human cancer cell lines; range over the cancer cell lines tested, read-out: IC50 against various / all human cancer cell lines) | IC50 (Ca9-22; [7]) | IC50 (HepG2; [8]) | IC50 (A549; [9]) | IC50 (MDA-MB-231; [10]) | IC50 (Hep3B; Table 1, natural phenanthrenes) | IC50 (MCF-7; [11]) | IC50 (MRC-5; [12]) | IC50 (Ca9-22; [13])
COC1=CC(=O)c2ccc3cc(OC)cc(OC(C)=O)c3c2C1=O [Compound 7b, 5-acetoxy-3,7-dimethoxy-1,4-phenanthrenequinone] | 13.2 ± 0.25 µg/mL (≈ 40.5 µM) | 1.66 ± 0.01 µg/mL (≈ 5.09 µM) | 1.61 ± 0.04 µg/mL (≈ 4.93 µM) | 0.6 ± 0.11 µg/mL (≈ 1.84 µM) | 0.53 ± 0.03 µg/mL (≈ 1.62 µM) | < 1 µg/mL | 2.64 ± 0.06 µg/mL (≈ 8.09 µM) | 0.16 to 1.66 µg/mL (≈ 0.49 to 5.09 µM) | 0.08 to 1.66 µg/mL (≈ 0.245 to 5.09 µM) | 1.55 ± 0.2 µg/mL (≈ 4.75 µM) |  |  |  |  |  |  | 
COC1=CC(=O)c2ccc3cc(OC)c(O)c(OC)c3c2C1=O [CA-2, calanquinone B] |  |  |  |  |  | 1 to 20 µg/mL |  |  |  |  | 14.5 ± 0.43 µg/mL (≈ 46 µM) | 18.5 ± 0.29 µg/mL (≈ 58.9 µM) | > 20 µg/mL | 11.9 ± 0.55 µg/mL (≈ 38 µM) | 11.9 ± 0.08 µg/mL (≈ 37.9 µM) | > 20 µg/mL | 14.64 ± 0.11 µg/mL (≈ 46.6 µM)
COC1=CC(=O)c2ccc3c(-c4c(OC)c(OC)c(OC)c5c6c(ccc45)C(=O)C=C(OC)C6=O)c(OC)c(OC)c(OC)c3c2C1=O [Compound 5d, 3,5,6,7,3′,5′,6,7′-Octamethoxy-[8,8′]bi-1,4,1′,4′-phenanthrenequinone] | 1.49 ± 0.01 µg/mL (≈ 2.28 µM) | 9.3 ± 0.48 µg/mL (≈ 14.2 µM) | 14.8 ± 0.25 µg/mL (≈ 22.5 µM) | 6.66 ± 0.13 µg/mL (≈ 10.2 µM) | 13.78 ± 0.06 µg/mL (≈ 21.1 µM) | 1 to 20 µg/mL | > 20 µg/mL |  |  | 4.36 ± 0.03 µg/mL (≈ 6.66 µM) |  |  |  |  |  |  | 
COc1cc(O)c2c(c1)CCc1ccc(O)c(OC)c1-2 [CA-7] |  |  |  |  |  | 1 to 20 µg/mL |  |  |  |  | > 20 µg/mL | > 20 µg/mL | > 20 µg/mL | > 20 µg/mL | 14.6 ± 0.34 µg/mL (≈ 53.7 µM) | > 20 µg/mL | > 20 µg/mL
COc1cc2ccc3cccc(O)c3c2c(OC)c1O [CA-8] |  |  |  |  |  | > 20 µg/mL |  |  |  |  | > 20 µg/mL | > 20 µg/mL | > 20 µg/mL | > 20 µg/mL | > 20 µg/mL | > 20 µg/mL | > 20 µg/mL
COC1=CC(=O)c2ccc3c(-c4c(OC)c(OC)c(OC)c5c6c(ccc45)C(=O)CC(OC)(OC)C6=O)c(OC)c(OC)c(OC)c3c2C1=O [Compound 5e, 3,5,6,7,3′,3′,5′,6,7′-nonamethoxy-2′3′-dihydro-[8,8′]bi-1,4,1′,4′-phenanthrenequinone] | 1.24 ± 0.08 µg/mL (≈ 1.81 µM) | 7.49 ± 0.07 µg/mL (≈ 10.9 µM) | 6.74 ± 0.05 µg/mL (≈ 9.82 µM) | 7.38 ± 0.02 µg/mL (≈ 10.7 µM) | 9.4 µg/mL (≈ 13.7 µM) | 1 to 20 µg/mL | 8.11 ± 0.25 µg/mL (≈ 11.8 µM) |  |  | 6.21 ± 0.12 µg/mL (≈ 9.04 µM) |  |  |  |  |  |  | 
COc1cc(O)cc2c1-c1ccc(O)cc1CC2 [CA-10] |  |  |  |  |  | 1 to 20 µg/mL |  |  |  |  | 7.52 µg/mL (≈ 31 µM) | 7.46 ± 0.32 µg/mL (≈ 30.8 µM) | 7.56 ± 0.03 µg/mL (≈ 31.2 µM) | 7.24 ± 0.18 µg/mL (≈ 29.9 µM) | 6.77 ± 0.12 µg/mL (≈ 27.9 µM) | 16.4 ± 0.36 µg/mL (≈ 67.7 µM) | 6.11 ± 0.51 µg/mL (≈ 25.2 µM)
COc1cc2c(c(OC)c1O)-c1c(O)ccc(O)c1CC2 [CA-4] |  |  |  |  |  | 1 to 20 µg/mL |  |  |  |  | > 20 µg/mL | > 20 µg/mL | 19.8 ± 0.45 µg/mL (≈ 68.8 µM) | 11.1 ± 0.73 µg/mL (≈ 38.3 µM) | 14.3 ± 0.18 µg/mL (≈ 49.6 µM) | > 20 µg/mL | 15.12 ± 0.14 µg/mL (≈ 52.4 µM)
COc1cc(OC)c2c(ccc3c(OC)ccc(O)c32)c1 [Compound 8b, 4-Hydroxy-1,5,7-trimethoxy-phenanthrene] | 10.1 ± 0.66 µg/mL (≈ 35.5 µM) | 19.6 ± 0.22 µg/mL (≈ 68.9 µM) | > 20 µg/mL | 6.93 ± 0.19 µg/mL (≈ 24.4 µM) | 19.31 ± 0.08 µg/mL (≈ 67.9 µM) | 1 to 20 µg/mL | > 20 µg/mL |  |  | 12.1 ± 0.37 µg/mL (≈ 42.5 µM) |  |  |  |  |  |  | 
COc1cc(O)c(-c2c(O)cc(OC)c3c2CCc2cc(O)ccc2-3)c2c1-c1ccc(O)cc1CC2 [CA-11] |  |  |  |  |  | 1 to 20 µg/mL |  |  |  |  | 7.17 ± 0.35 µg/mL (≈ 14.9 µM) | 7.4 ± 0.01 µg/mL (≈ 15.3 µM) | 7.42 ± 0.03 µg/mL (≈ 15.4 µM) | 6.28 ± 0.26 µg/mL (≈ 13 µM) | 4.84 ± 0.89 µg/mL (≈ 10 µM) | 13.2 ± 0.33 µg/mL (≈ 27.3 µM) | 5.86 ± 0.06 µg/mL (≈ 12.1 µM)
COc1cc2ccc3c(OC)ccc(OC)c3c2c(O)c1OC [Compound 9a, 5-hydroxy-1,4,6,7-tetramethoxy-phenanthrene] | > 20 µg/mL | > 20 µg/mL | > 20 µg/mL | > 20 µg/mL | > 20 µg/mL | > 20 µg/mL | > 20 µg/mL |  |  | > 20 µg/mL |  |  |  |  |  |  | 
